Test results taken from patent US20110294736A1, “COMPOUNDS AND METHODS FOR THE TREATMENT OF AUTOIMMUNE AND INFLAMMATORY DISEASE” (THE PROVOST, FELLOWS AND SCHOLARS OF THE HOLY AND UNDIVIDED …, priority 2008, published 2011).

Assays:
[1] = test system: IL-17-expressing and IFN-γ-expressing T cells in the brains of mice with EAE; assay: Intracellular IFN-γ and IL-17 staining (flow cytometry) of brain mononuclear cells of EAE mice; format: in vivo; settings: CD3+, CD3+ CD4+ and CD3+ CD4− cells; 12 days post EAE induction; PMA/ionomycin
Experimental: Mononuclear cells were isolated from the brains of control EAE or Tri-DAP treated EAE mice 12 days post EAE induction. Cells were restimulated overnight with PMA/ionomycin and incubated with Brefeldin A. Cells were stained with anti-CD3 (FIG. 4), or anti-CD3 and anti-CD4 (FIGS. 5 and 6). Cells were then fixed and permeabilized, stained intracellularly with anti-IFN-γ and anti-IL-17 and analysed by flow cytometry.

[2] = test system: EBI3 mRNA; assay: EBI3 mRNA (real time PCR) in inguinal lymph nodes 72 hours post EAE induction; format: in vivo; settings: Tri-DAP 100 μg/mouse days 0, 1, 2, vs control mice
Experimental: EAE was induced in C57BL/6 mice by subcutaneous injection with 150 μg of MOG35-55 in CFA supplemented with 4 mg/ml H37 Ra M. tuberculosis on day 0. All mice were injected i.p with PT on days 0 and 2. One group of mice were untreated and the second group were given Tri-DAP (100 μg/mouse) given on day 0 in MOG/CFA emulsion and again on days 1 and 2. Three mice from each group were sacrificed 72 hours post EAE induction. The inguinal lymph nodes were removed and collected in Trizol. EBI3 mRNA was evaluated by real time PCR normalized to 18S rRNA. Data are shown as fold induction over naïve C57BL/6 inguinal lymph nodes (FIG. 7).

[3] = test system: Bone marrow derived DC; assay: EBI3 and IL-27p28 mRNA in bone marrow derived DC stimulated with TLR agonists; format: cell-based, murine; settings: Tri-DAP 100 μg/ml 24 hours before LPS 10 ng/ml for 6 hours
Experimental: Bone marrow derived DC (1×10^6 cell/ml) were pretreated with Tri-DAP (100 μg/ml) for 24 hours prior to stimulation with the TLR agonists LPS (10 ng/ml) and CpG (5 μg/ml), and the MOG35-55 peptide (20 μg/ml) or medium alone (control) for 6 hours. EBI3 (FIG. 8 (a)) and IL-27p28 (FIG. 8 (b)) mRNA were evaluated by real time PCR normalized to 18S rRNA. Data are shown as fold induction over DC cultured in medium only.

[4] = test system: BMDC; assay: EBI3 and IL-27p28 mRNA in BMDC pretreated with MAPK/MEK1/2 inhibitors, then TriDAP and LPS or CpG; format: cell-based, murine
Experimental: BMDC (1×10^6) were pretreated with either the MAPK inhibitor, SB203580 ([…]) or the MEK1/2 inhibitor, U0126 ([…]) for 30 minutes prior to stimulation with TriDAP […] or medium alone. After 24 hours the cells were then stimulated with LPS (lipopolysaccharide) (100 ng/ml), CpG ([…]) or medium alone. EBI3 and IL-27p28 mRNA were evaluated by real time PCR normalized to 18S rRNA. Data are shown as fold induction over DC cultured in medium only (FIG. 9 (a) and FIG. 9 (b)).

[5] = test system: PLP-specific IL-17 and IFN-γ; assay: PLP-specific IL-17 and IFN-γ (ELISA) of restimulated lymph node or spleen cells, relapsing-remitting EAE model; format: in vivo; settings: SJL mice, TriDAP 100 μg/mouse every 2 days from day 12, day 26, PLP 1-25 μg/ml
Experimental: EAE was induced in SJL mice by immunization with […] (PLP) in complete Freund's adjuvant (CFA) followed by pertussis toxin (PT). Mice were treated with PBS (control) or TriDAP (100 μg/mouse) every 2 days from day 12. Mice were sacrificed on day 26, and lymph node or spleen cells restimulated in vitro with PLP (1-25 μg/ml). After 3 days, IL-17 and IFNγ production in supernatants were quantified by ELISA.

[6] = test system: Peritoneal exudate cells (PECs); assay: TLR agonist induced cytokines (ELISA) of peritoneal exudate cells from treated mice; format: in vivo; settings: TriDAP 100 μg/mouse/day i.p. 5 days vs PBS; LPS, CpG or Pam3Csk; 24 hours
Experimental: Mice were treated with either PBS or TriDAP (100 μg/mouse/day i.p.) for 5 days. Peritoneal exudate cells (PECs; 1×10^6/ml) were stimulated with medium alone (control), or with a Toll-like Receptor agonist selected from the following: the TLR4 agonist LPS (lipopolysaccharide) (100 ng/ml), the TLR9 agonist CpG (5 μg/ml), or the TL2 agonist Pam3Csk (500 ng/ml). Supernatants were collected after 24 hours and cytokine concentrations were quantified by ELISA.

[7] = test system: antigen presenting cells (PECs) activating MOG-specific T cells; assay: IFN-γ of MOG-specific T cells cultured with irradiated PECs of treated mice as antigen presenting cells; format: in vivo; settings: TriDAP 100 μg/mouse/day i.p. 5 days vs PBS; MOG 20 μg/ml; 72 hours
Experimental: Mice were treated with either PBS or TriDAP (100 μg/mouse/day i.p.) for 5 days. Peritoneal exudate stimulator cells (PECs) were irradiated and used as antigen presenting cells (APC) for MOG-specific T cells. T cells from mice immunized with MOG (Myelin oligodendrocyte glycoprotein) and CFA (1×10^6/ml) were culture with PECs (1×10^6/ml) and MOG (20 μg/ml). Supernatants were collected after 72 hours and IFN-γ concentrations were quantified by ELISA.

[8] = test system: dendritic cells activating Th17 cells; assay: IL-17 of CD4 T cells cultured with LPS-stimulated dendritic cells with and without TriDAP; format: cell-based, mice; settings: TriDAP 100 μg/ml; LPS 10 or 100 ng/ml; KLH 20 μg/ml; 72 hours
Experimental: CD4 T cells from mice immunized with MOG and LPS, were cultured in vitro with dendritic cells stimulated with LPS (10 or 100 ng/ml) with and without TriDAP (100 μg/ml) in the presence of KLH (20 μg/ml). Supernatants were collected after 72 hours and IL-17 concentrations were quantified by ELISA. *P<0.05, ***P<0.001, with and without TriDAP.

[9] = test system: Dendritic cells cultured from human PBMC; assay: IL-27 and IL-10 ELISA in dendritic cells cultured from human PBMC; format: cell-based; settings: 24 hours
Experimental: Dendritic cells cultured from human PBMC with IL-4 and GM-CSF were stimulated with TriDap (100 μg/ml), LPS (10 or 100 ng/ml), LPS and TriDAP or medium only. Supernatants were collected after 24 hours and IL-27 and IL-10 concentrations were quantified by ELISA. **P<0.01, ***P<0.001, with versus without TriDAP.

[10] = test system: NF-κB; settings: higher than iE-DAP; previously shown; cited from earlier work
[11] = U0126 (5 mM) 30 minutes before TriDAP, LPS 100 ng/ml after 24 hours
[12] = TriDap 100 μg/ml with LPS 10 or 100 ng/ml

SMILES: C[C@H](N)C(=O)N[C@H](CCC(=O)N[C@@H](CCC[C@@H](N)C(=O)O)C(=O)O)C(=O)O [Tri-DAP, L-alanyl-γ-D-glutamyl-meso-diaminopimelic acid]
- IFN-γ production by brain T cells [1]: suppressed
- IL-17 production by brain T cells [1]: suppressed
- EBI3 gene expression in inguinal lymph nodes [2]: strong fold increase
- LPS induced EBI3 gene expression [3]: enhancement
- LPS induced IL-27p28 gene expression [3]: enhancement
- Tri-DAP synergy with LPS for EBI3 gene expression under inhibition of ERK [4, 11]: greatly enhances
- Tri-DAP synergy with LPS for IL-27p28 gene expression under inhibition of ERK [4, 11]: greatly enhances
- Tri-DAP induced or Tri-DAP and TLR agonist induced IL-27 production on addition of an ERK inhibitor ([4]; dendritic cells, ERK inhibitor added): significantly enhances
- PLP-specific IL-17 levels ([5]; spleen and lymph node cells): on-going reduction
- PLP-specific IFN-gamma levels ([5]; spleen cells): on-going reduction
- IL-10 secreted by PEC after re-stimulation with TLR agonists [6]: higher concentrations
- TGF-beta secreted by PEC after re-stimulation with TLR agonists [6]: higher concentrations
- IFN-gamma secreted by antigen-specific T cells stimulated with APC of treated mice [7]: less
- ability of dendritic cells to activate IL-17 production by CD4 T cells [8]: significant reduction
- IL-27 expression by human derived dendritic cells ([9]; TriDAP 100 μg/ml alone, without TLR agonist): express IL-27
- IL-10 production by human dendritic cells ([9]; TriDap 100 μg/ml alone): Induces
- IL-27 expression on co-stimulation with a Toll-like Receptor agonist [9, 12]: significant enhanced
- TLR-induced IL-10 production by human dendritic cells [9, 12]: Enhances
- ability to activate NF-κB relative to iE-DAP [10]: 3 fold
